Reference: patent US20220030867A1 (priority 2018, published 2022)

Legend:
Fusarium culmorum [1] = test: whole plant or invertebrate; type: in vivo, Fusarium culmorum on wheat spikelets cv. Monsun; details: in Triticum aestivum, read-out: control of Fusarium culmorum
[2] = tested on: Magnaporthe grisea (Pyricularia oryzae); test: microbe, parasite or virus in culture; type: cell-based; details: read-out: control of Magnaporthe grisea
[3] = tested on: Magnaporthe grisea (Pyricularia oryzae); test: whole plant or invertebrate; type: in vivo, Magnaporthe grisea on rice leaf segments cv. Ballila; details: foliar, read-out: control of Magnaporthe grisea
[4] = tested on: Mycosphaerella graminicola (Septoria tritici); test: Mycosphaerella graminicola (Septoria tritici) / liquid culture (Septoria blotch); type: cell-based; details: Zymoseptoria tritici, growth inhibition photometrically 4-5 days after application, vs untreated control
Method: Mycosphaerella graminicola (Septoria tritici)/Liquid Culture (Septoria Blotch)
(§1) Conidia of the fungus from cryogenic storage are directly mixed into nutrient broth (PDB potato dextrose broth). After placing a (DMSO) solution of test compound into a microtiter plate (96-well format), the nutrient broth containing the fungal spores is added. The test plates are incubated at 24° C. and the inhibition of growth is determined photometrically 4-5 days after application.

[5] = tested on: Botryotinia fuckeliana (Botrytis cinerea); test: Botryotinia fuckeliana (Botrytis cinerea) / liquid culture (gray mould); type: cell-based; details: growth inhibition photometrically 3-4 days after application, vs untreated control
Method: Botryotinia fuckeliana (Botrytis cinerea)/Liquid Culture (Gray Mould)
as §1, with “(Vogels” for “(PDB potato dextrose”, “3-4” for “4-5”

Fusarium culmorum [6] = test: microbe, parasite or virus in culture; type: cell-based; details: read-out: control of Fusarium culmorum
[7] = tested on: Glomerella lagenarium (Colletotrichum lagenarium); test: Glomerella lagenarium (Colletotrichum lagenarium) / liquid culture (anthracnose); type: cell-based; details: Colletotrichum orbiculare, growth inhibition photometrically 3-4 days after application, vs untreated control
Method: as §1, with “measured” for “determined”, “3-4” for “4-5”

[8] = tested on: Monographella nivalis (Microdochium nivale); test: Monographella nivalis (Microdochium nivale) / liquid culture (foot rot cereals); type: cell-based; details: growth inhibition photometrically 4-5 days after application, vs untreated control
Method: Monographella nivalis (Microdochium nivale)/Liquid Culture (Foot Rot Cereals)
as §1

Sclerotinia sclerotiorum = Sclerotinia sclerotiorum / liquid culture (cottony rot); type: cell-based; details: growth inhibition photometrically 3-4 days after application, vs untreated control
Method: Sclerotinia sclerotiorum/Liquid Culture (Cottony Rot)
as §1, with “Mycelia fragments of a newly grown liquid culture” for “Conidia”, “fungus” for “fungus from cryogenic storage”, “(Vogels” for “(PDB potato dextrose”, “format)” for “format),”, “material” for “spores”, “3-4” for “4-5”

Row | Structure (SMILES) | pest or weed control at 200 ppm (Fusarium culmorum [1]) | inhibition of growth at 200 ppm [2] | pest or weed control at 200 ppm [3] | inhibition of growth at 200 ppm [4] | melting point | inhibition of growth at 200 ppm [5] | inhibition of growth at 200 ppm (Fusarium culmorum [6]) | inhibition of growth at 200 ppm [7] | inhibition of growth at 200 ppm [8] | inhibition of growth at 20 ppm (Sclerotinia sclerotiorum)
1 | CC(C)CC(F)(Cc1ccccc1)C(=O)Nc1cnc2c(F)cccc2c1 (stereo not shown) [Compound E-1] | ≥ 80% | ≥ 80% | ≥ 80% | ≥ 80% |  |  |  |  |  | 
2 | C=C(Cl)CC(Cc1ccccc1)C(=O)Nc1cc2cccc(F)c2nc1C (stereo not shown) [Compound E-4, 2-benzyl-4-chloro-N-(8-fluoro-2-methyl-3-quinolyl)pent-4-enamide] |  | ≥ 80% |  | ≥ 80% | 96 to 99 °C |  |  |  |  | 
3 | Cc1nc2c(F)cccc2cc1NC(=O)C(Cc1ccccc1)CC1(C)CC1 (stereo not shown) [Compound E-89, 2-benzyl-N-(8-fluoro-2-methyl-3-quinolyl)-3-(1-methylcyclopropyl)propanamide] | ≥ 80% | ≥ 80% | ≥ 80% |  | 162 to 163 °C | ≥ 80% | ≥ 80% | ≥ 80% | ≥ 80% | ≥ 80%
4 | Cc1c(NC(=O)C(Cc2ccccc2)CC2(C)CC2)cnc2c(F)cccc12 (stereo not shown) [Compound E-90, 2-benzyl-N-(8-fluoro-4-methyl-3-quinolyl)-3-(1-methylcyclopropyl)propanamide] | ≥ 80% | ≥ 80% | ≥ 80% |  | 144 to 146 °C | ≥ 80% | ≥ 80% | ≥ 80% | ≥ 80% | ≥ 80%
5 | CC1(CC(Cc2ccccc2)C(=O)Nc2cnc3c(F)cccc3c2)CC1 (stereo not shown) [Compound E-91, 2-benzyl-N-(8-fluoro-3-quinolyl)-3-(1-methylcyclopropyl)propanamide] | ≥ 80% | ≥ 80% | ≥ 80% |  | 135 to 136 °C | ≥ 80% | ≥ 80% | ≥ 80% | ≥ 80% | ≥ 80%
6 | C=C(C)CC(Cc1ccccc1)C(=O)Nc1cc2cccc(F)c2nc1C (stereo not shown) [Compound E-92, 2-benzyl-N-(8-fluoro-2-methyl-3-quinolyl)-4-methyl-pent-4-enamide] | ≥ 80% | ≥ 80% |  | ≥ 80% | 97 to 99 °C |  |  |  |  | 
7 | C=C(C)CC(Cc1ccccc1)C(=O)Nc1cnc2c(F)cccc2c1C (stereo not shown) [Compound E-93, 2-benzyl-N-(8-fluoro-4-methyl-3-quinolyl)-4-methyl-pent-4-enamide] |  | ≥ 80% | ≥ 80% | ≥ 80% | 116 to 118 °C |  |  |  |  | ≥ 80%
8 | Cc1c(NC(=O)C(Cc2ccccc2)CC(C)(C)C)cnc2c(F)cccc12 (stereo not shown) [Compound E-96, 2-benzyl-N-(8-fluoro-4-methyl-3-quinolyl)-4,4-dimethyl-pentanamide] | ≥ 80% | ≥ 80% | ≥ 80% |  | 135 to 136 °C | ≥ 80% | ≥ 80% | ≥ 80% | ≥ 80% | ≥ 80%
9 | Cc1nc2c(F)cccc2cc1NC(=O)C(Cc1ccccc1)CC(C)(C)C (stereo not shown) [Compound E-97, 2-benzyl-N-(8-fluoro-2-methyl-3-quinolyl)-4,4-dimethyl-pentanamide] | ≥ 80% | ≥ 80% | ≥ 80% |  |  | ≥ 80% | ≥ 80% | ≥ 80% | ≥ 80% | 
10 | C=C(Cl)C[C@@H](Cc1ccccc1)C(=O)Nc1cc2cccc(F)c2nc1C [Compound F-25, (2R)-2-benzyl-4-chloro-N-(8-fluoro-2-methyl-3-quinolyl)pent-4-enamide] | ≥ 80% | ≥ 80% | ≥ 80% | ≥ 80% |  | ≥ 80% | ≥ 80% | ≥ 80% |  | 
11 | C=C(Cl)C[C@H](Cc1ccccc1)C(=O)Nc1cnc2c(F)cccc2c1C [Compound F-28, (2S)-2-benzyl-4-chloro-N-(8-fluoro-4-methyl-3-quinolyl)pent-4-enamide] |  | ≥ 80% |  |  |  | ≥ 80% | ≥ 80% | ≥ 80% | ≥ 80% | ≥ 80%
12 | Cc1nc2c(F)cccc2cc1NC(=O)[C@@](C)(Cc1cccc(F)c1)CC(C)C [Compound F-30, (2R)-N-(8-fluoro-2-methyl-3-quinolyl)-2-[(3-fluorophenyl)methyl]-2,4-dimethyl-pentanamide] |  | ≥ 80% | ≥ 80% |  |  | ≥ 80% |  | ≥ 80% | ≥ 80% | ≥ 80%
13 | Cc1nc2c(F)cccc2cc1NC(=O)[C@@H](Cc1ccccc1)CC(C)(C)C [Compound F-34, (2R)-2-benzyl-N-(8-fluoro-2-methyl-3-quinolyl)-4,4-dimethyl-pentanamide] | ≥ 80% | ≥ 80% | ≥ 80% |  |  | ≥ 80% | ≥ 80% | ≥ 80% | ≥ 80% | ≥ 80%
14 | Cc1c(NC(=O)[C@H](Cc2ccccc2)CC(C)(C)C)cnc2c(F)cccc12 [Compound F-35, (2S)-2-benzyl-N-(8-fluoro-4-methyl-3-quinolyl)-4,4-dimethyl-pentanamide] | ≥ 80% | ≥ 80% | ≥ 80% |  |  | ≥ 80% | ≥ 80% | ≥ 80% | ≥ 80% | 
15 | Cc1c(NC(=O)[C@@H](Cc2ccccc2)CC(C)(C)C)cnc2c(F)cccc12 [Compound F-36, (2R)-2-benzyl-N-(8-fluoro-4-methyl-3-quinolyl)-4,4-dimethyl-pentanamide] | ≥ 80% | ≥ 80% | ≥ 80% |  |  | ≥ 80% | ≥ 80% | ≥ 80% | ≥ 80% | ≥ 80%
16 | Cc1nc2c(F)cccc2cc1NC(=O)[C@@H](Cc1ccccc1)CC1(C)CC1 [Compound F-38, (2R)-2-benzyl-N-(8-fluoro-2-methyl-3-quinolyl)-3-(1-methylcyclopropyl)propanamide] | ≥ 80% | ≥ 80% |  |  |  | ≥ 80% | ≥ 80% | ≥ 80% | ≥ 80% | ≥ 80%
17 | C=C(Cl)C[C@@](C)(Cc1ccccc1)C(=O)Nc1cnc2c(F)cccc2c1C [Compound F-42, (2R)-2-benzyl-4-chloro-N-(8-fluoro-4-methyl-3-quinolyl)-2-methyl-pent-4-enamide] | ≥ 80% | ≥ 80% | ≥ 80% |  |  | ≥ 80% | ≥ 80% | ≥ 80% | ≥ 80% | ≥ 80%
18 | C=C(Cl)C[C@](C)(Cc1ccccc1)C(=O)Nc1cc2cccc(F)c2nc1C [Compound F-44, (2S)-2-benzyl-4-chloro-N-(8-fluoro-2-methyl-3-quinolyl)-2-methyl-pent-4-enamide] | ≥ 80% | ≥ 80% | ≥ 80% |  |  | ≥ 80% | ≥ 80% | ≥ 80% | ≥ 80% | ≥ 80%
